Assays:
Pyrenophora teres [1] = experiment: B-10. Pyrenophora teres in vitro cell test; type: cell-based; conditions: 144 h, 20 ppm of active ingredient, 6 days incubation, liquid culture, absorbance, read-out: efficacy (inhibition of fungal growth)
How it was run: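 Liquid-culture assay on a P. teres spore suspension with compounds added to the medium from DMSO solutions, final DMSO ≤1%. Mycelium growth read spectrometrically after 6 days. Inhibition calculated from absorbance against untreated control wells.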

[2] = tested on: Colletotrichum lindemuthianum; experiment: B-8. Colletotrichum lindemuthianum in vitro cell test; type: cell-based; conditions: 144 h, 20 ppm of active ingredient, 6 days incubation, liquid culture, absorbance, read-out: efficacy (inhibition of fungal growth)
How it was run: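 Spore suspension of C. lindemuthianum in liquid medium exposed to DMSO-solubilized compounds (final DMSO ≤1%) for 6 days. Mycelial growth read by absorbance, with inhibition calculated relative to compound-free control wells.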

Botrytis cinerea [3] = experiment: B-11. Botrytis cinerea in vitro cell test; type: cell-based; conditions: 144 h, 20 ppm of active ingredient, 6 days incubation, liquid culture, absorbance, read-out: efficacy (inhibition of fungal growth)
How it was run: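 B. cinerea spores were grown in liquid culture with compound (DMSO ≤1% final). Mycelium growth was measured spectrometrically after 6 days, with inhibition taken as absorbance relative to untreated control wells.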

Pyrenophora teres [4] = experiment: In vivo preventive test on Pyrenophora teres (net blotch on barley); conditions: 240 h, 500 ppm of active ingredient, preventive spray on barley, evaluated 10 days after inoculation, read-out: efficacy
Method: B-3. In Vivo Preventive Test on Pyrenophora Teres (Net Blotch on Barley) [table] The active ingredients were made soluble and homogenized in a mixture of Dimethyl sulfoxide/Acetone/Tween® 80 and then diluted in water to the desired concentration. The young plants of barley were treated by spraying the active ingredient prepared as described above. Control plants were treated only with an aqueous solution of Acetone/Dimethyl sulfoxide/Tween® 80. After 24 hours, the plants were contaminated by spraying the leaves with an aqueous suspension of Pyrenophora teres spores. The contaminated barley plants were incubated for 48 hours at 20° C. and at 100% relative humidity and then for 8 days at 20° C. and at 70-80% relative humidity.

[5] = Measurement of Log P values by HPLC on reversed phase columns (EEC directive 79/831 Annex V.A8); type: physicochemical; conditions: reversed phase HPLC column, method [a]: LC-UV, acidic range, 0.1% formic acid in water and acetonitrile as eluent
How it was run: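 Reversed-phase HPLC with UV detection per EEC 79/831 Annex V.A8, linear 10–95% acetonitrile gradient. Aqueous eluent: 0.1% formic acid (acidic), 0.001 M ammonium acetate (neutral), or 0.1% phosphoric acid (acidic); multiple values in one method joined by "+".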

Alternaria alternata = Alternaria alternata in vitro cell test; type: cell-based; conditions: 120 h, 20 ppm of active ingredient, liquid culture, 5 days incubation, spectrometric measurement of mycelium growth, read-out: efficacy (inhibition of fungal growth)
How it was run: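 Liquid culture assay in which A. alternata spores in medium received DMSO-solubilized compound (final DMSO ≤1%). After 5 days, mycelium growth was measured spectrometrically. Inhibition was calculated against fungicide-free control wells.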

Alternaria brassicae = experiment: In vivo preventive test on Alternaria brassicae (leaf spot on radish or cabbage); conditions: 500 ppm of active ingredient, preventive spray on radish or cabbage, evaluated 3 to 4 days after inoculation, read-out: efficacy
How it was run: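 Young radish or cabbage plants were sprayed with compound dissolved in DMSO/acetone/Tween 80 and diluted in water; controls received solvent only. Inoculation by spraying A. brassicae spore suspension 24 h later, then 3–4 days at 20 °C and 100% relative humidity.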

Botrytis cinerea [6] = experiment: In vivo preventive test on Botrytis cinerea (grey mould); conditions: 500 ppm of active ingredient, preventive spray on gherkin or cabbage, evaluated 4 to 5 days after inoculation, read-out: efficacy
How it was run: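 Young gherkin or cabbage plants were sprayed with compound in DMSO/acetone/Tween 80 diluted in water, then inoculated 24 hours later with a B. cinerea spore suspension. Incubation lasted 4 to 5 days: gherkin at 17° C., 90% relative humidity; cabbage at 20° C., 100% relative humidity.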

[7] = tested on: Colletotrichum lindemuthianum; experiment: In vivo preventive test on Colletotrichum lindemuthianum (leaf spot on bean); conditions: 168 h, 500 ppm of active ingredient, preventive spray on bean, evaluated 7 days after inoculation, read-out: efficacy
Method: B-5. In Vivo Preventive Test on Colletotrichum lindemuthianum (Leaf Spot on Bean) [table] The active ingredients were made soluble and homogenized in a mixture of Dimethyl sulfoxide/Acetone/Tween® 80 and then diluted in water to the desired concentration. The young plants of bean were treated by spraying the active ingredient prepared as described above. Control plants were treated only with an aqueous solution of Acetone/Dimethyl sulfoxide/Tween® 80. After 24 hours, the plants were contaminated by spraying the leaves with an aqueous suspension of Colletotrichum lindemuthianum spores. The contaminated bean plants were incubated for 24 hours at 20° C. and at 100% relative humidity and then for 6 days at 20° C. and at 90% relative humidity.

Sphaerotheca fuliginea = experiment: In vivo preventive test on Sphaerotheca fuliginea (powdery mildew on cucurbits); conditions: Podosphaera fuliginea, 192 h; 500 ppm of active ingredient; preventive spray on gherkin; evaluated 8 days after inoculation; read-out: efficacy
How it was run: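 Young gherkin plants were sprayed with compound in DMSO/acetone/Tween 80 diluted in water. They were inoculated 24 h later with a spore suspension of Sphaerotheca fuliginea. Plants were then kept for 8 days at 20 °C and 70–80% relative humidity.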

chromatographic logP [5] | SMILES | inhibition at 20 ppm (Pyrenophora teres [1]) [%] | inhibition at 20 ppm [2] [%] | inhibition at 20 ppm (Botrytis cinerea [3]) [%] | pest or weed control at 500 ppm (Pyrenophora teres [4]) [%] | inhibition at 20 ppm (Alternaria alternata) [%] | pest or weed control at 500 ppm (Alternaria brassicae) [%] | pest or weed control at 500 ppm (Botrytis cinerea [6]) [%] | pest or weed control at 500 ppm [7] [%] | pest or weed control at 500 ppm (Sphaerotheca fuliginea) [%]
4.66 | Cc1ccc(C(F)(F)CNC(=O)c2c(Oc3cccc(C(F)(F)F)c3)nnc3cc(F)ccc23)c(Cl)c1 [I-171] | 90 to 100 | 90 to 100 | 90 to 100 | 70 to 79 | 90 to 100 | 90 to 100 |  |  | 
3.02 | Cc1ccc([C@H](C)NC(=O)c2c(Oc3cccc(C(F)(F)F)c3)nnc3c2OCCO3)cc1 (racemic) [I-102] |  | 90 to 100 |  |  | 90 to 100 | 90 to 100 | 90 to 100 | 90 to 100 | 90 to 100
3.87 | Cc1cccc(Oc2nnc3ccccc3c2C(=O)NCC(F)(F)c2ccc(Cl)cc2)c1 [I-014] |  | 90 to 100 |  | 70 to 79 | 90 to 100 | 90 to 100 | 90 to 100 |  | 90 to 100
3.48 | O=C(NC[C@H](F)c1ccc(Br)cc1Cl)c1c(Oc2cccc(C(F)(F)F)c2)nnc2c1OCCO2 (racemic) [I-105] |  | 90 to 100 |  |  | 90 to 100 | 90 to 100 | 90 to 100 | 90 to 100 | 90 to 100
3.6 | O=C(NCC(F)(F)c1ccc(Br)cc1Cl)c1c(Oc2cccc(C(F)(F)F)c2)nnc2c1OCCO2 [I-103] |  | 90 to 100 |  |  | 90 to 100 | 80 to 89 | 90 to 100 | 80 to 89 | 90 to 100
4.33 | Cc1ccc([C@@H](F)CNC(=O)c2c(Oc3cccc(C(F)(F)F)c3)cnc3ccccc23)cc1C (racemic) [I-056] |  | 90 to 100 | 90 to 100 |  | 90 to 100 | 90 to 100 | 90 to 100 | 90 to 100 | 90 to 100
4.47 | Cc1cc(Cl)ccc1[C@@H](F)CNC(=O)c1c(Oc2cccc(C(F)(F)F)c2)cnc2ccccc12 (racemic) [I-061] |  | 90 to 100 | 90 to 100 |  | 90 to 100 | 90 to 100 | 90 to 100 | 70 to 79 | 90 to 100
3.84 | Cc1cc(C(F)F)ccc1[C@@H](F)CNC(=O)c1c(Oc2cccc(Cl)c2)nnc2ccccc12 (racemic) [I-049] |  | 90 to 100 | 90 to 100 | 80 to 89 | 90 to 100 | 90 to 100 | 90 to 100 |  | 
4.4 | C=Cc1cccc(Oc2cnc3ccccc3c2C(=O)NCC(F)(F)c2ccc(C)cc2C)c1 [I-221] | 90 to 100 | 90 to 100 | 90 to 100 |  | 90 to 100 | 90 to 100 | 90 to 100 | 70 to 79 | 
3.37 | O=C(NCC(F)c1ccc(Cl)cc1Cl)c1c(Oc2cccc(C(F)(F)F)c2)nnc2c1OCCO2 (racemic) [I-101, N-[2-(2,4-dichlorophenyl)-2-fluoro-ethyl]-3-[3-(trifluoro-methyl)phenoxy]-6,7-dihydro-[1,4]dioxino[2,3-c]pyridazine-4-carboxamide] |  | 80 to 89 |  |  | 90 to 100 | 90 to 100 | 90 to 100 | 90 to 100 | 90 to 100

Reference: patent US20230192617A1, “AZABICYCLIC(THIO)AMIDES AS FUNGICIDAL COMPOUNDS” (Bayer CropScience Aktiengesellschaft, priority 2020, published 2023)
